Laboratory results taken from the supplement of paper PMC7341893.

How the values were obtained:
Assay in all cases: growth (OD600) normalised to reference wells; higher = more growth / less inhibition
SPT14(H106Y) = system: SPT14(H106Y)
Experimental: (§1)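 S. cerevisiae strains (wild type, SPT14 point-mutant knock-ins, HIP heterozygous and HOP homozygous deletion strains) were grown in rich medium in 96-well plates with 12-point serial dilutions of jawsamycin or clotrimazole (DMSO normalised to 2%). Growth was read as OD600 and normalised within each dilution series (NormOD, % growth). Wells set exactly to 100 are normalisation references and are left out.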

SPT14_HIP = system: SPT14_HIP
Experimental: as §1

GPI15_HIP = system: GPI15_HIP
Experimental: as §1

SPT14(T114A) = system: SPT14(T114A)
Experimental: as §1

GPI2_HIP = system: GPI2_HIP
Experimental: as §1

SPT14(WT) = system: SPT14(WT)
Experimental: as §1

SPT14(V76F) = system: SPT14(V76F)
Experimental: as §1

GPI1_HIP = system: GPI1_HIP
Experimental: as §1

HO_HIP = system: HO_HIP
Experimental: as §1

HO_HOP = system: HO_HOP
Experimental: as §1

RLM1_HOP = system: RLM1_HOP
Experimental: as §1

MID2_HOP = system: MID2_HOP
Experimental: as §1

HAC1_HOP = system: HAC1_HOP
Experimental: as §1

IRE1_HOP = system: IRE1_HOP
Experimental: as §1

MUD2_HOP = system: MUD2_HOP
Experimental: as §1

JIP3_HOP = system: JIP3_HOP
Experimental: as §1

Clc1ccccc1C(c1ccccc1)(c1ccccc1)n1ccnc1 [Clotrimazole]
growth [%]
Settings	GPI1_HIP	GPI2_HIP	GPI15_HIP	HO_HIP	SPT14(H106Y)	SPT14(T114A)	SPT14(V76F)	SPT14(WT)	SPT14_HIP
0.0599525 µM	–	–	–	–	87.7	89.1	–	86.2	–
0.1259 µM	–	–	–	–	–	–	101	–	–
0.125900179 µM	99.71	101.2	100.7	101	60.9	72	–	69.1	101.3
0.26439 µM	99.45	99.573	99.95	98.3	6.75	33.3	99.4	8.87	99.746
0.55522 µM	92.9	94.15	94.01	94.61	7.18	13.3	104	9.82	91.5
1.16596 µM	10.1	14.5	7.93	8.24	4.48	12.5	97.7	6.88	11.7
2.44852 µM	4.4	2.59	3.69	1.95	5.03	15.9	95.9	6.32	3.86
5.14189 µM	1.82	1.15	1.3	0.55	3.41	12	98.2	4.16	1.8
10.79796998 µM	0.134	0.0555	-0.36	-0.231	1.98	3.16	–	3	0.0343
10.798 µM	–	–	–	–	–	–	4.41	–	–
22.6757 µM	-0.448	-0.447	-0.813	-0.622	2.09	3.52	0.641	3.43	-0.803
47.619 µM	-0.6398	-0.447	-0.839	-0.564	-0.417	0.134	-1.36	-0.421	-0.679
100 µM	1.31	1.041	0.998	1.08	-0.409	0.19	-0.859	-0.41	1.11

C[C@@H]1C[C@H]1/C=C/[C@@H]1C[C@H]1[C@@H]1C[C@H]1[C@@H]1C[C@H]1[C@@H]1C[C@H]1/C=C/C=C/C(=O)NC[C@H]1O[C@@H](N2CCC(=O)NC2=O)[C@H](O)[C@@H]1O [Jawsamycin]
Settings	growth [%]
GPI1_HIP, 0.125900179 µM	95.1
GPI1_HIP, 0.26439 µM	65.4
GPI1_HIP, 0.55522 µM	3.38
GPI1_HIP, 1.16596 µM	0.172
GPI1_HIP, 2.44852 µM	-0.0309
GPI1_HIP, 5.14189 µM	0.123
GPI1_HIP, 10.79796998 µM	-0.0696
GPI1_HIP, 22.6757 µM	-0.0919
GPI1_HIP, 47.619 µM	0.953
GPI1_HIP, 100 µM	4.06
GPI2_HIP, 0.125900179 µM	102
GPI2_HIP, 0.26439 µM	78.2
GPI2_HIP, 0.55522 µM	12.1
GPI2_HIP, 1.16596 µM	0.957
GPI2_HIP, 2.44852 µM	-0.153
GPI2_HIP, 5.14189 µM	-0.208
GPI2_HIP, 10.79796998 µM	-0.242
GPI2_HIP, 22.6757 µM	0.183
GPI2_HIP, 47.619 µM	1.43
GPI2_HIP, 100 µM	3.73
GPI15_HIP, 0.125900179 µM	96
GPI15_HIP, 0.26439 µM	83.9
GPI15_HIP, 0.55522 µM	14.5
GPI15_HIP, 1.16596 µM	0.707
GPI15_HIP, 2.44852 µM	-0.181
GPI15_HIP, 5.14189 µM	-0.594
GPI15_HIP, 10.79796998 µM	-0.329
GPI15_HIP, 22.6757 µM	-0.355
GPI15_HIP, 47.619 µM	2.02
GPI15_HIP, 100 µM	3.35
HAC1_HOP, 0.12590018 µM	72.1
HAC1_HOP, 0.26439 µM	23.7
HAC1_HOP, 0.55522 µM	3.92
HAC1_HOP, 1.16596156 µM	2.26
HAC1_HOP, 2.44852 µM	0.418
HAC1_HOP, 5.14189 µM	0.344
HAC1_HOP, 10.798 µM	1.36
HO_HIP, 0.125900179 µM	100.4
HO_HIP, 0.26439 µM	96.5
HO_HIP, 0.55522 µM	29.9
HO_HIP, 1.16596 µM	5.52
HO_HIP, 2.44852 µM	1.29
HO_HIP, 5.14189 µM	0.138
HO_HIP, 10.79796998 µM	-0.0442
HO_HIP, 22.6757 µM	0.182
HO_HIP, 47.619 µM	5.56
HO_HIP, 100 µM	11.6
HO_HOP, 0.12590018 µM	97
HO_HOP, 0.26439 µM	84
HO_HOP, 0.55522 µM	56
HO_HOP, 1.16596156 µM	15.1
HO_HOP, 2.44852 µM	4.54
HO_HOP, 5.14189 µM	1.38
HO_HOP, 10.798 µM	8.54
IRE1_HOP, 0.12590018 µM	70.1
IRE1_HOP, 0.26439 µM	14.2
IRE1_HOP, 0.55522 µM	2.66
IRE1_HOP, 1.16596156 µM	-0.118
IRE1_HOP, 2.44852 µM	-0.241
IRE1_HOP, 5.14189 µM	-0.264
IRE1_HOP, 10.798 µM	0.8
JIP3_HOP, 0.12590018 µM	64.5
JIP3_HOP, 0.26439 µM	-0.444
JIP3_HOP, 0.55522 µM	-0.584
JIP3_HOP, 1.16596156 µM	-0.756
JIP3_HOP, 2.44852 µM	-0.689
JIP3_HOP, 5.14189 µM	-0.655
JIP3_HOP, 10.798 µM	0.0162
MID2_HOP, 0.12590018 µM	89.4
MID2_HOP, 0.26439 µM	0.809
MID2_HOP, 0.55522 µM	-0.646
MID2_HOP, 1.16596156 µM	-0.903
MID2_HOP, 2.44852 µM	-0.918
MID2_HOP, 5.14189 µM	-0.848
MID2_HOP, 10.798 µM	-0.546
MUD2_HOP, 0.12590018 µM	33.2
MUD2_HOP, 0.26439 µM	0.873
MUD2_HOP, 0.55522 µM	-1.12
MUD2_HOP, 1.16596156 µM	-1.19
MUD2_HOP, 2.44852 µM	-0.498
MUD2_HOP, 5.14189 µM	-0.906
MUD2_HOP, 10.798 µM	-0.454
RLM1_HOP, 0.12590018 µM	88
RLM1_HOP, 0.26439 µM	2.22
RLM1_HOP, 0.55522 µM	-0.308
RLM1_HOP, 1.16596156 µM	-0.482
RLM1_HOP, 2.44852 µM	-0.568
RLM1_HOP, 5.14189 µM	-0.545
RLM1_HOP, 10.798 µM	-0.0157
SPT14(H106Y), 0.0599525 µM	99.9
SPT14(H106Y), 0.125900179 µM	99.6
SPT14(H106Y), 0.26439 µM	96
SPT14(H106Y), 0.55522 µM	91.6
SPT14(H106Y), 1.16596 µM	65.8
SPT14(H106Y), 2.44852 µM	1.98
SPT14(H106Y), 5.14189 µM	-4.83
SPT14(H106Y), 10.79796998 µM	-5.01
SPT14(H106Y), 22.6757 µM	-5
SPT14(H106Y), 47.619 µM	-2.96
SPT14(H106Y), 100 µM	0.649
SPT14(T114A), 0.0599525 µM	96.9
SPT14(T114A), 0.125900179 µM	97.4
SPT14(T114A), 0.26439 µM	92.3
SPT14(T114A), 0.55522 µM	86.4
SPT14(T114A), 1.16596 µM	61
SPT14(T114A), 2.44852 µM	-0.886
SPT14(T114A), 5.14189 µM	-4.03
SPT14(T114A), 10.79796998 µM	-3.95
SPT14(T114A), 22.6757 µM	-3.63
SPT14(T114A), 47.619 µM	-2.26
SPT14(T114A), 100 µM	0.0855
SPT14(V76F), 0.1259 µM	101.9
SPT14(V76F), 0.26439 µM	103
SPT14(V76F), 0.55522 µM	104
SPT14(V76F), 1.16596 µM	96.4
SPT14(V76F), 2.44852 µM	100
SPT14(V76F), 5.14189 µM	99
SPT14(V76F), 10.798 µM	102
SPT14(V76F), 22.6757 µM	102
SPT14(V76F), 100 µM	74.6
SPT14(WT), 0.0599525 µM	80.5
SPT14(WT), 0.125900179 µM	17.9
SPT14(WT), 0.26439 µM	-3.32
SPT14(WT), 0.55522 µM	-3.82
SPT14(WT), 1.16596 µM	-3.97
SPT14(WT), 2.44852 µM	-3.91
SPT14(WT), 5.14189 µM	-3.92
SPT14(WT), 10.79796998 µM	-3.59
SPT14(WT), 22.6757 µM	-3.29
SPT14(WT), 47.619 µM	-1.96
SPT14(WT), 100 µM	-0.804
SPT14_HIP, 0.125900179 µM	108
SPT14_HIP, 0.26439 µM	89.878
SPT14_HIP, 0.55522 µM	21.9
SPT14_HIP, 1.16596 µM	2.72
SPT14_HIP, 2.44852 µM	0.0973
SPT14_HIP, 5.14189 µM	-0.496
SPT14_HIP, 10.79796998 µM	-0.548
SPT14_HIP, 22.6757 µM	0.0487
SPT14_HIP, 47.619 µM	2.81
SPT14_HIP, 100 µM	5.21
